Test [1] concerns the target T1, human α1H T-type channels (Homo sapiens, UniProt O95180).
T1 construct: expressed in transfected cells; host or cells: HEK 293
Description: T-type calcium channel block, whole cell patch clamp in HEK cells (α1H). It is filed as cell-based. The conditions noted are these: HEK cells, patch clamp, mainly non-inactivated protocol; values above 10 μM shown as 10 μM; read-out: T-type Calcium Channel Block α1H IC50. Here is the method: T-type calcium channel blocking activity was assayed in human embryonic kidney cells, HEK 293, stably transfected with the T-type calcium channel subunits. Briefly, cells were cultured in Dulbecco's modified eagle medium (DMEM) supplemented with 10% fetal bovine serum, 200 U/ml penicillin and 0.2 mg/ml streptomycin at 37° C. with 5% CO2. At 85% confluency cells were split with 0.25% trypsin/1 mM EDTA and plated at 10% confluency on glass coverslips. […] Fresh DMEM was supplied and the cells transferred to 28° C./5% CO2. Cells were incubated for 1 to 2 days prior to whole cell recording.
Standard patch-clamp techniques were employed to identify blockers of T-type currents. Briefly, previously described HEK cell lines stably expressing human α1G, α1H and α1I T-type channels were used for all the recordings (passage #: 4-20, 37° C., 5% CO2). Whole cell patch clamp experiments were performed using an Axopatch 200B amplifier (Axon Instruments, Burlingame, Calif.) linked to a personal computer equipped with pCLAMP software. Data were analyzed using Clampfit (Axon Instruments) and SigmaPlot 4.0 (Jandel Scientific). To obtain T-type currents, plastic dishes containing semi-confluent cells were positioned on the stage of a ZEISS AXIOVERT S100 microscope after replacing the culture medium with external solution (see below). Whole-cell patches were obtained using pipettes (borosilicate glass with filament, O.D.: 1.5 mm, I.D.: 0.86 mm, 10 cm length), fabricated on a SUTTER P-97 puller with resistance values of ˜5 MΩ (see below for internal solution).
In the non-inactivating protocol, the holding potential is set at −110 mV and with a pre-pulse at −100 mV for 1 second prior to the test pulse at −40 mV for 50 ms.
Test compounds were dissolved in external solution, 0.1-0.01% DMSO. After ˜10 min rest, they were applied by gravity close to the cell using a WPI microfil tubing. The “non-inactivated” pre-pulse was used to examine the resting block of a compound. The “inactivated” protocol was employed to study voltage-dependent block. […] Values are shown in μM and values above 10 μM are simply represented as 10 μM.
Background: In patch-clamp work, channel activity is measured electrically.

Test [2] deals with T2, human α1G T-type channels (Homo sapiens, UniProt O43497).
T2 construct: expressed in transfected cells; host or cells: HEK 293
T2 sequence (O43497 whole entry): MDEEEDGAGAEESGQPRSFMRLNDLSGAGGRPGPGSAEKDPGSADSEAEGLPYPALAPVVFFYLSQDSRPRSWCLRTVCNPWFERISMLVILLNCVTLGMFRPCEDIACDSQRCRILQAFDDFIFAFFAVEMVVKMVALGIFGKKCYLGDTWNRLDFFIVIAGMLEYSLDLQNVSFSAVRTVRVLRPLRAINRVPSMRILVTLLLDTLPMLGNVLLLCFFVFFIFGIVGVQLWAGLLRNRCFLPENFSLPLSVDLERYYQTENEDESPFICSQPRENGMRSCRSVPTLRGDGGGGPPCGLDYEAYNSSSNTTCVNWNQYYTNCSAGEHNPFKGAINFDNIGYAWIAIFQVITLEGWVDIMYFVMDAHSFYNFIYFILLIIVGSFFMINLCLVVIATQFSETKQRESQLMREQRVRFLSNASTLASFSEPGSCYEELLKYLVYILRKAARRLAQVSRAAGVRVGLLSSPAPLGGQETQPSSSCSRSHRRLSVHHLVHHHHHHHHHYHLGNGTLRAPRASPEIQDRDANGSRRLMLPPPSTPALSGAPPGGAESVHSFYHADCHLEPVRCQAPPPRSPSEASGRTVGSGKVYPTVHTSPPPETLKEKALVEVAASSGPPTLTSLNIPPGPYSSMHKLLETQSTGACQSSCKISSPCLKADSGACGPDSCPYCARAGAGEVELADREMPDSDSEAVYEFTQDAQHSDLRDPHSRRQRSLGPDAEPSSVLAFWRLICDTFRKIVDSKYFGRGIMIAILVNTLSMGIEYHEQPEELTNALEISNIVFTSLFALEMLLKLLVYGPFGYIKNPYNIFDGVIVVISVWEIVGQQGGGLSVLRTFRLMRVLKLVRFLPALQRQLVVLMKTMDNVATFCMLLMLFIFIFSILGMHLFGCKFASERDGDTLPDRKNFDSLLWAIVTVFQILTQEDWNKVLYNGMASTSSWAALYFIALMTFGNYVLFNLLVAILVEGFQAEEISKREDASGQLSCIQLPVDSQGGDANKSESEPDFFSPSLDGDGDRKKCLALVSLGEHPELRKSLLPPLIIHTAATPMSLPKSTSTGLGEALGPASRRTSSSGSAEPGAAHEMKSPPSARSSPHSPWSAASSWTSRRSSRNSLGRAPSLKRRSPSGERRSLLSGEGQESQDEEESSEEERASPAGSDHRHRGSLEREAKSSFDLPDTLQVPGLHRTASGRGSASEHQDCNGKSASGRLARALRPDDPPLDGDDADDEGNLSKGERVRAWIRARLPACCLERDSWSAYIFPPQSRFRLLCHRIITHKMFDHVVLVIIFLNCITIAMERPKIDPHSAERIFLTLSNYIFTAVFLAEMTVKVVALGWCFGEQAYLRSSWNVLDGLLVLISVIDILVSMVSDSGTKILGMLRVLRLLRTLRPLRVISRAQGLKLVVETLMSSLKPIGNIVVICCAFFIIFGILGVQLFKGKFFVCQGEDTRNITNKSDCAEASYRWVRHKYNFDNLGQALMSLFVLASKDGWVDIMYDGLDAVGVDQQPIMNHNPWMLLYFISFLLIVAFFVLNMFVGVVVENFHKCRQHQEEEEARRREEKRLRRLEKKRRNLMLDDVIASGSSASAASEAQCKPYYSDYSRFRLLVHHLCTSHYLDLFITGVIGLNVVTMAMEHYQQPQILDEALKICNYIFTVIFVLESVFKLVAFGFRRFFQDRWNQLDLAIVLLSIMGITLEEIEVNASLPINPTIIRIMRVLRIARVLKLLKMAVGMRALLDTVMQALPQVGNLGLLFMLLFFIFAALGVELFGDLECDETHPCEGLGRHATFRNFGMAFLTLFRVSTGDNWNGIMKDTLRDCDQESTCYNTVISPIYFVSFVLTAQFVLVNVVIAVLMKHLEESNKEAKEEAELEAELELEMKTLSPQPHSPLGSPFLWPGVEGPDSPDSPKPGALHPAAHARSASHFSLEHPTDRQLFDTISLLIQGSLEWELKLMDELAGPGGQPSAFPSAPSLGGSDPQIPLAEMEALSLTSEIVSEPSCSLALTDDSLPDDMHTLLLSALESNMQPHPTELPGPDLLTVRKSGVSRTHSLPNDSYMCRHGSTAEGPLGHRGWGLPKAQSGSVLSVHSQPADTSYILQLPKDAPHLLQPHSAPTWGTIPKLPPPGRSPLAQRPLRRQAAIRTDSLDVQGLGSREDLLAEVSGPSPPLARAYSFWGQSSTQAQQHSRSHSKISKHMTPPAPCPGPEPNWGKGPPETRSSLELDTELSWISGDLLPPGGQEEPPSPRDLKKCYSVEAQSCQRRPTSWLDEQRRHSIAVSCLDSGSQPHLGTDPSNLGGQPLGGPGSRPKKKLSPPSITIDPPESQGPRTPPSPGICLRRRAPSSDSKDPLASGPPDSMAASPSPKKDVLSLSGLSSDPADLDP
Nature of the test: T-type calcium channel block, whole cell patch clamp in HEK cells (α1G). It is filed as cell-based. The following applies: HEK cells, patch clamp, mainly non-inactivated protocol; values above 10 μM shown as 10 μM, below 0.30 μM shown as 0.30 μM; read-out: T-type Calcium Channel Block α1G IC50.

As usually defined, the IC50 is the concentration needed to halve the response being measured.

Molecules are shown by their SMILES. Bounds are passed on as bounds.

T1 sequence (O95180 whole entry): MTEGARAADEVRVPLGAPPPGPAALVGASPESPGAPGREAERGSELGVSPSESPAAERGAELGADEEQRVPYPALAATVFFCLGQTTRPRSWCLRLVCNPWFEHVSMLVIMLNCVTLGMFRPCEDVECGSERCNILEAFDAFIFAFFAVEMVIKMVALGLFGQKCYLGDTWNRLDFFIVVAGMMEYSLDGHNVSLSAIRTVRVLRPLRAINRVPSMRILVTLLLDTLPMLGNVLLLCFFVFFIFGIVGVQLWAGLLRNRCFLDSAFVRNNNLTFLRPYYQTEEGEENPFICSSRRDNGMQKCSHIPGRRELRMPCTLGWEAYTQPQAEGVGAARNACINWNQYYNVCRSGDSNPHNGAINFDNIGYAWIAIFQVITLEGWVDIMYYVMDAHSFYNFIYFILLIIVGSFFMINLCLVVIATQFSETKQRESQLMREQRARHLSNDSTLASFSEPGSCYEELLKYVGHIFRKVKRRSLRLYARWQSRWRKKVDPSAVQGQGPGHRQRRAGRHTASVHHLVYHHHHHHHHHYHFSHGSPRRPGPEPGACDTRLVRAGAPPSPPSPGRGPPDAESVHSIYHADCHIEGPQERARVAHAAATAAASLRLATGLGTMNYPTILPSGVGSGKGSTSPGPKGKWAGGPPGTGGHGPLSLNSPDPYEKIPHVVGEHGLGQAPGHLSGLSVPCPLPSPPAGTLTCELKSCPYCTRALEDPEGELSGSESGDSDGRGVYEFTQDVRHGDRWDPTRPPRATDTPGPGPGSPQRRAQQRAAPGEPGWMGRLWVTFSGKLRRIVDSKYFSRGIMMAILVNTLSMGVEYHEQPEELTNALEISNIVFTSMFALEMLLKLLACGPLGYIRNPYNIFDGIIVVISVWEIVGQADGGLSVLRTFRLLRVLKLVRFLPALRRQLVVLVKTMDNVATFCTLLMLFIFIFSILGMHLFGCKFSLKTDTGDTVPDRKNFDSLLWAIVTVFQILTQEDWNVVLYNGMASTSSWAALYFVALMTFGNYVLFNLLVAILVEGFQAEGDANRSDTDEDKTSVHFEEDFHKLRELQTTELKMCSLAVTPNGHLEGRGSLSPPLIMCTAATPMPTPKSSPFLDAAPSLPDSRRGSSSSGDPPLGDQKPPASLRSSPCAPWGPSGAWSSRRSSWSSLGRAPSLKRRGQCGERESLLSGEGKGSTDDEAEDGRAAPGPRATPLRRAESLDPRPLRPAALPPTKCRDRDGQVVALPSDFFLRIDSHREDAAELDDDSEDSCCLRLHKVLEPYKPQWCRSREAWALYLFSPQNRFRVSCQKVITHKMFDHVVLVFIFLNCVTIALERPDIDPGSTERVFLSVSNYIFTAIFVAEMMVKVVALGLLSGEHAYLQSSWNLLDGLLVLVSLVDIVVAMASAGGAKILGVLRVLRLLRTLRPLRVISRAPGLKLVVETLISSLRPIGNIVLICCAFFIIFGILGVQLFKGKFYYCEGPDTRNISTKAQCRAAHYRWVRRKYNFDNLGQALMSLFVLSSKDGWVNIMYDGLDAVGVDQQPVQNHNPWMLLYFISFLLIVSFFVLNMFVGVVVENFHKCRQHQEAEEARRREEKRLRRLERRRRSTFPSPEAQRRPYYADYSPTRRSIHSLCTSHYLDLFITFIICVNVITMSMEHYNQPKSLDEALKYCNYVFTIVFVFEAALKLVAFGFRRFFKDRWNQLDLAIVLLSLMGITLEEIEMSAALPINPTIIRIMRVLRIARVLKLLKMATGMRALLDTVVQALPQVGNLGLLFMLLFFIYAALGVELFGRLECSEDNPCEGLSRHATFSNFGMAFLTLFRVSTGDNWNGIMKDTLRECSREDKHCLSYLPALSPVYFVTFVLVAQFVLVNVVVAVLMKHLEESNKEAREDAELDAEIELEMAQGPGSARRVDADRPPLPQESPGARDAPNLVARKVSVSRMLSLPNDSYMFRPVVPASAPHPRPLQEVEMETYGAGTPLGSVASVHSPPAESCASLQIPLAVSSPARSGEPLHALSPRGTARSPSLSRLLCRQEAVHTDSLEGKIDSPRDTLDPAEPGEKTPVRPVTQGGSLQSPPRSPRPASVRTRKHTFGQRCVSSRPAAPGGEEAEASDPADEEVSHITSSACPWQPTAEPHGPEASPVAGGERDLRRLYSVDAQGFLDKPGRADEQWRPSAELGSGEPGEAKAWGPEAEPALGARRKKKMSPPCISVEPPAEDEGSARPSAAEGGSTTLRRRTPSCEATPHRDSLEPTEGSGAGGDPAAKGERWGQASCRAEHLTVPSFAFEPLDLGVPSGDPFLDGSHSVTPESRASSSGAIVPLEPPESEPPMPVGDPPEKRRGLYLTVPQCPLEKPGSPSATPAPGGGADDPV

`CC(C)(C(=O)NCCN1CCC(CNC(=O)c2cc(C(F)(F)F)cc(S(C)(=O)=O)c2)CC1)C(F)(F)F` [Compound 587, 3-(methylsulfonyl)-N-((1-(2-(3,3,3-trifluoro-2,2-dimethyl-propanamido)ethyl)piperidin-4-yl)methyl)-5-(trifluoromethyl) benzamide]: the results for the IC50 in test [1] and in test [2] were 3.59 µM and above 10 µM, respectively. The corresponding values for `O=C(NCC1CCN(CCNS(=O)(=O)C(F)(F)F)CC1)c1cc(Br)cc(Br)c1` [Compound 388, 3,5-dibromo-N-((1-(2-(trifluoromethylsulfonamido)ethyl)piperidin-4-yl)methyl)benzamide] are 0.16 µM and below 0.3 µM.

For `O=C(NCC1CCN(C(=O)CN2CCCC(C(F)(F)F)C2)CC1)c1cc(C(F)(F)F)cc(C(F)(F)F)c1` (stereo not drawn) [Compound 255, 3,5-bis(trifluoromethyl)-N-((1-(2-(3-(trifluoromethyl)piperidin-1-yl)acetyl)piperidin-4-yl)methyl)benzamide], the IC50 was 2.34 µM in test [1] and 0.57 µM in test [2]. With `CC(C(=O)NC1(C)CCCCC1)N1CCC(CNC(=O)c2cc(F)cc(Cl)c2)CC1` (stereo not drawn) [Compound 550, 3-chloro-5-fluoro-N-((1-(1-(1-methylcyclohexylamino)-1-oxopropan-2-yl)piperidin-4-yl)methyl)benzamide], the IC50 in test [1] was 0.02 µM; in test [2] it was below 0.3 µM. `O=C(NCC1CCN(CC(=O)N2CCC(F)CC2)CC1)c1cc(C(F)(F)F)cc(C(F)(F)F)c1` [Compound 349, N-((1-(2-(4-fluoropiperidin-1-yl)-2-oxoethyl)piperidin-4-yl)methyl)-3,5-bis(trifluoromethyl)benzamide]: the values for the IC50 in test [1] and in test [2] were 0.3 µM and below 0.3 µM, respectively. On to `O=C(NCC1CCN(C(=O)CNCCCN2CCOCC2)CC1)c1cc(C(F)(F)F)cc(C(F)(F)F)c1` [Compound 244, N-((1-(2-(3-morpholinopropylamino)acetyl)piperidin-4-yl)methyl)-3,5-bis(trifluoromethyl)benzamide], for which the IC50 in test [1] is above 10 µM; in test [2] it was 7.19 µM.

Consider `CC(C)(C(=O)NCCN1CCC(CNC(=O)c2cccc(OC(F)(F)F)c2)CC1)C(F)(F)F` [Compound 496, N-((1-(2-(3,3,3-trifluoro-2,2-dimethylpropanamido)ethyl)piperidin-4-yl)methyl)-3-(trifluoromethoxy)benzamide], for which the IC50 in test [1] is 0.09 µM; in test [2], below 0.3 µM. Turning to `CC(C)NC(=O)CN1CCC(CNC(=O)c2cc(F)cc(C(F)(F)F)c2)CC1` [Compound 350, 3-fluoro-N-((1-(2-(isopropylamino)-2-oxoethyl)piperidin-4-yl)methyl)-5-(trifluoromethyl)benzamide], the IC50 came to 0.75 µM in test [1] and 0.91 µM in test [2]. Regarding `O=C(NCC1CCN(CCNC(=O)C2CCCC2)CC1)c1cc(C(F)(F)F)cc(C(F)(F)F)c1` [Compound 62, N-((1-(2-(cyclopentanecarboxamido)ethyl)piperidin-4-yl)methyl)-3,5-bis(trifluoromethyl)benzamide], in test [1], the IC50 came to 0.23 µM. Turning to `CCC1CCCCN1C(=O)CN1CCC(CNC(=O)c2cc(C(F)(F)F)cc(C(F)(F)F)c2)CC1` (stereo not drawn) [Compound 100, N-((1-(2-(2-ethylpiperidin-1-yl)-2-oxoethyl)piperidin-4-yl)methyl)-3,5-bis(trifluoromethyl)benzamide], in test [1], the IC50 came to 0.1 µM. Same read-out and setting: the value for `O=C(NCC1CCN(CC(=O)N2CCCC(O)C2)CC1)c1cc(C(F)(F)F)cc(C(F)(F)F)c1` (stereo not drawn) [Compound 98, N-((1-(2-(3-hydroxypiperidin-1-yl)-2-oxoethyl)piperidin-4-yl)methyl)-3,5-bis(trifluoromethyl)benzamide] was 3.6 µM; that for `CS(=O)(=O)c1cc(C(=O)NCC2CCN(CC(=O)N3CCC[C@@H]3C(F)(F)F)CC2)cc(C(F)(F)F)c1` [Compound 589, (R)-3-(methylsulfonyl)-N-((1-(2-oxo-2-(2-(trifluoromethyl)pyrrolidin-1-yl)ethyl)piperidin-4-yl)methyl)-5-(trifluoromethyl) benzamide] was above 10 µM. For `CC(C)(C)OC(=O)N1CC(N2CCC(CNC(=O)c3cc(F)cc(Cl)c3)CC2)C1` [Compound 597, tert-buyl 3-(4-((3-chloro-5-fluorobenzamido)methyl)piperidin-1-yl)azetidine-1-carboxylate], in test [1], the IC50 is 6.52 µM. As to `O=C(NCC1CCN(C2CN(C(=O)c3cccc(Br)c3)C2)CC1)c1cc(F)cc(Cl)c1` [Compound 602, N-((1-(1-(3-bromobenzoyl)azetidin-3-yl)piperidin-4-yl)methyl)-3-chloro-5-fluorobenzamide], the IC50 in test [1] turned out to be 2.41 µM. Turning to `O=C(NCC1CCN(CC(=O)N2CCCC2C(F)(F)F)CC1)c1cc(C(F)(F)F)cc(C(F)(F)F)c1` (stereo not drawn) [Compound 107, N-((1-(2-oxo-2-(2-(trifluoromethyl)pyrrolidin-1-yl)ethyl)piperidin-4-yl)methyl)-3,5-bis(trifluoromethyl) benzamide], the IC50 in test [1] turned out to be 0.16 µM. As to `CC(C)(O)C(=O)NCCN1CCC(CNC(=O)c2cc(C(F)(F)F)cc(C(F)(F)F)c2)CC1` [Compound 65, N-((1-(2-(2-hydroxy-2-methylpropanamido)ethyl)piperidin-4-yl)methyl)-3,5-bis(trifluoromethyl) benzamide], the IC50 in test [1] stood at 6.37 µM.

As to `O=C(NCC1CCN(C2CN(C(=O)c3cc(F)cc(C(F)(F)F)c3)C2)CC1)c1cc(F)cc(Cl)c1` [Compound 604, 3-chloro-5-fluoro-N-((1-(1-(3-fluoro-5-(trifluoromethyl)benzoyl)azetidin-3-yl)piperidin-4-yl)methyl)benzamide], the IC50 in test [1] was 1.9 µM. Same read-out and setting: the value for `CN(C(=O)CN1CCC(CNC(=O)c2cccc(Br)c2)CC1)C1(C)CCC1` [Compound 593, 3-bromo-N-((1-(2-(methyl(1-methylcyclobutyl)amino)-2-oxoethyl)piperidin-4-yl)methyl) benzamide] was 0.26 µM; that for `O=C(CN1CCC(CNC(=O)c2cc(C(F)(F)F)cc(C(F)(F)F)c2)CC1)N[C@H]1CC[C@H](O)CC1` [Compound 96, N-((1-(2-((1r,4r)-4-hydroxycyclo-hexylamino)-2-oxoethyl)piperidin-4-yl)methyl)-3,5-bis(trifluoromethyl) benzamide] was above 10 µM; that for `O=C(NCC1CCN(C2CN(C(=O)C3(C(F)(F)F)CCC3)C2)CC1)c1cc(F)cc(Cl)c1` [Compound 610, 3-chloro-5-fluoro-N-((1-(1-(1-(trifluoromethyl)cyclobutanecarbonyl)azetidin-3-yl)piperidin-4-yl)methyl) benzamide] was 0.77 µM. For the compound `O=C(CC1CCN(C(=O)C2(O)CCNCC2)CC1)Nc1cc(C(F)(F)F)cc(C(F)(F)F)c1` [Compound 157, N-(3,5-bis(trifluoromethyl)phenyl)-2-(1-(4-hydroxypiperidine-4-carbonyl)piperidin-4-yl)acetamide], the IC50 in test [1] was above 10 µM. On to `O=C(NCC1CCN(C2CN(C(=O)c3cc(Cl)cc(Cl)c3)C2)CC1)c1cc(F)cc(Cl)c1` [Compound 601, 3-chloro-N-((1-(1-(3,5-dichlorobenzoyl)azetidin-3-yl)piperidin-4-yl)methyl)-5-fluoro-benzamide], for which, in test [1], the IC50 stood at 1.87 µM.

For the origin of these results see US8569344B2, “N-piperidinyl acetamide derivatives as calcium channel blockers” (Zalicus Pharmaceuticals Ltd., priority 2008, dated 2013).
